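Each compound was tested at five concentrations against cells in 96-well plates for 48 hours. GI50 marks 50% less growth. TGI marks complete inhibition of growth.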
Key:
Test in all cases: growth of human tumour cells (NCI), 48 h
[1] = test system: BT-549 breast
[2] = test system: IGROV1 ovarian
[3] = test system: K-562 leukemia
[4] = test system: OVCAR-4 ovarian
[5] = test system: PC-3 prostate
[6] = test system: RXF 393 renal
[7] = test system: SF-539 CNS
[8] = test system: U251 CNS
[9] = test system: UACC-62 melanoma
[10] = test system: UO-31 renal

Structure (SMILES) | GI50 [1] [µM] | TGI [1] [µM] | GI50 [2] [µM] | TGI [2] [µM] | GI50 [3] [µM] | TGI [3] [µM] | GI50 [4] [µM] | TGI [4] [µM] | GI50 [5] [µM] | TGI [5] [µM] | GI50 [6] [µM] | TGI [6] [µM] | GI50 [7] [µM] | TGI [7] [µM] | GI50 [8] [µM] | TGI [8] [µM] | GI50 [9] [µM] | TGI [9] [µM] | GI50 [10] [µM] | TGI [10] [µM]
COc1ccc(/C=c2/sc3n(c2=O)C(c2ccc(OC)c(OC)c2)C2=C(N=3)c3cc(F)ccc3OC2)cc1 (stereo not given) | 46.2 | > 100 | 9.71 | > 26.5 | 19.9 | > 100 | > 23.2 | > 74.1 | 17.6 | > 100 | > 100 | > 100 | 43 | > 100 | 20.9 | > 78.5 | 17.9 | > 63.3 | 27.6 | > 77.7
CC(=O)O[C@@H]1C[C@]2(C(C)C)O[C@@]1(C)[C@@H]1CCC(C)=C1[C@@H]2OC(=O)/C=C/c1ccccc1 | 51.3 | > 100 | > 100 | > 100 | 33.7 | > 100 | 11.6 | > 100 | 8.33 | > 100 | 8.83 | 65.9 | > 100 | > 100 | 48.4 | > 100 | 26.5 | > 100 | 20 | > 100
NC(=O)C(=CNc1nc(-c2ccc(Cl)c(Cl)c2)cs1)C(N)=O | > 100 | > 100 | 32.6 | > 100 | 75.8 | > 100 | 62.4 | > 100 | > 100 | > 100 | > 100 | > 100 | 46.4 | > 100 | 65 | > 100 | > 100 | > 100 | 12.1 | > 100
Cc1ccc(Nc2nc(N)c(C(=O)c3ccc(C#N)cc3)s2)cc1 | 0.475 | > 60.9 | 1.2 | > 100 | 0.0685 | > 100 | 3.86 | > 68.4 | 0.347 | > 100 | 0.398 | 7.44 | 0.312 | 2.85 | 0.434 | > 87.3 | 0.416 | > 100 | 0.644 | > 100
O=C(O)c1cc(O)c2c(c1)C(C1c3cc(C(=O)O)cc(O)c3C(=O)c3c(OC4OC(CO)C(O)C(O)C4O)cccc31)c1cccc(OC3OC(CO)C(O)C(O)C3O)c1C2=O (stereo not given) | > 100 | > 100 | > 100 | > 100 | > 100 | > 100 | > 100 | > 100 | > 100 | > 100 | > 100 | > 100 | > 100 | > 100 | > 100 | > 100 | > 100 | > 100 | > 100 | > 100
Cc1n(Cc2ccc3ccccc3c2)cc[n+]1Cc1ccc2ccccc2c1 | 0.929 | 3.01 | 0.797 | 2.87 | 0.478 | 4.51 | 0.381 | 6.36 | 1.06 | 11.6 | 0.857 | 3.4 | 1.37 | 7.14 | 0.818 | 7.98 | 0.843 | 2.42 | 9.26 | 22
O=C(N/N=C\c1cc(Br)ccc1O)c1ccncc1 | 2.57 | 40.8 | 3.51 | > 100 | 3.37 | > 100 | 0.814 | 33.3 | 1.87 | > 100 | 1.89 | > 100 | 2.93 | 48.7 | 1.92 | 68.8 | 1.45 | 7.4 | 1.76 | > 100
c1ccc2c3ccn4cc5c(cc4c-3nc2c1)CCCC5 | 11.3 | 59.6 |  |  | 1.95 | 12.6 | 2.85 | 11 |  | 12.1 | 5.62 | 27 | 3.4 | 17.1 | 3.22 | 13.6 | 3.25 | 14.4 | 14.6 | 29.8
O=c1[nH]c2cc(Cl)ccc2n1C1CCN(CCCC(c2ccc(F)cc2)c2ccc(F)cc2)CC1 | 1.32 | 2.92 | 1.98 | 3.87 | 2.98 | > 100 | 1.51 | 2.9 | 1.69 | 4.4 | 0.48 | 2.02 | 1.64 | 3 | 1.54 | 2.87 | 1.71 | 3.13 | 1 | 2.38
COC(COC(=O)N1CCN(C=O)CC1)C1=C(N2CC2)C(=O)C(C)=C(N2CC2)C1=O (stereo not given) |  | 1.97 |  | 1.38 |  | > 100 |  | 2.13 |  | 3.24 |  | 0.815 |  | 0.342 |  | 2.71 |  | 1.35 |  | 3.19
COc1ccc(CNc2c3ccccc3nc3ccccc23)cc1OC | 3.15 | 12.2 | 2.3 | 6.55 | 2.34 | 25.2 | 2.39 | 7.99 | 2.58 | 9.97 | 1.49 | 3.64 | 2.82 | 11.3 | 2.98 | 13.6 | 2.42 | 7.46 | 1.17 | 5.05
COc1ccc(-c2cc(-c3cccn3C)c(C#N)c(N)n2)cc1OC | 64 | > 100 | 96 | > 100 | 55.6 | > 100 | 40.7 | > 100 | 99 | > 100 | > 100 | > 100 | 82.4 | > 100 | > 100 | > 100 | 86.3 | > 100 | 98.3 | > 100
CCN(CC)CC(C)(C)C(=O)/C=C/c1ccc(Cl)c(Cl)c1 | 1.72 | 3.12 | 2.01 | 4.95 | 1.1 | 6.29 | 1.63 | 3.2 | 1.85 | 3.51 | 1.59 | 3.1 | 1.85 | 3.54 | 1.71 | 3.15 | 1.66 | 3.59 | 1.32 | 2.72
Cc1[nH]n(-c2cccc(Cl)c2)c(=O)c1/C=C1\C=Nc2ccc(Br)cc21 | 7.89 | 30 | 3.04 | 9.34 |  |  | 1.59 | 2.95 | 3.64 | 22.3 | 1.86 | 4.01 | 4.32 | 16.7 | 2.83 | 8.65 | 4.34 | 18.2 | 2.08 | 6.57
Cc1ccc(N(CSc2ccc(Cl)cc2)CSc2ccc(Cl)cc2)cc1 | 0.334 | 1.54 | 0.481 | 5.87 |  |  | 2.78 | 31.4 | 0.787 | 13.2 | 1.73 | 7.57 | 1.02 | 2.59 | 0.581 | 11.2 | 0.818 | 2.91 | 0.717 | 2.75
O=C(O)c1c(-c2nccc3ccccc23)[nH]c(-c2ccccc2)c1S(=O)(=O)O |  | > 100 |  | > 100 |  |  |  | > 100 |  | > 100 |  | > 100 |  | > 100 |  | > 100 |  | > 100 |  | > 100
O=C(O)c1ccccc1-c1ccccc1C(=O)Nc1ccc2c(c1)Cc1cc(F)ccc1-2 |  | 40.2 |  | > 100 |  |  |  | > 100 |  | 68.2 |  | > 100 |  | > 100 |  | 50.2 |  | 36.8 |  | > 100
Cc1c(C2Nc3ccccc3C2C)[nH]c2ccccc12 (stereo not given) | 13.8 | 34.5 | 2.96 | 27.3 | 0.89 | 50.4 | 6.17 | 21.6 | 10.6 | 32.3 | 12.4 | 28.8 | 8.72 | 25.1 |  |  | 6.24 | 21.3 | 6.27 | 22.1
Cc1cn2c(/C=C3/C(=O)Nc4ccccc43)c(-c3ccc(Cl)cc3)nc2s1 | 9.32 | 19.3 | 10.2 | 19.9 | 46.5 | > 50 |  |  | 9.81 | 16.9 | 3.72 | 12.9 | 5.8 | 11.9 | 5.31 | 11.2 | 5.49 | 11.5 | 35.9 | > 50
CC(=O)Oc1ccccc1C(=O)N=C1[Se]CCCN1C(=O)c1ccccc1OC(C)=O | 2.29 | 6.66 | 2.83 | 11.6 | 3.32 | 12.6 | 1.93 | 5.57 | 2.34 | 7.24 | 2.48 | 6.92 | 2.66 | 6.28 | 1.64 | 3 |  |  | 1.33 | 4.25
